From ChEMBL document CHEMBL5356971, “Optimization of the Antibacterial Spectrum and the Developability Profile of the Novel-Class Natural Product Corramycin” (J Med Chem, 2023)
≈ marks a conversion by molar mass, not a printed value. Numbered stars: 1 amine (or outer) side, 2 acyl side, 3 side chain; on linkers, the order of the positions; unused ones are H or OH. Square brackets hold non-standard residues; d marks the D form. Peptide text beside a SMILES is read from it. * marks the point of attachment. Ava(2S,3R-(OH)2,4S-OMe) = CO[C@@H](CN[*:1])[C@H](O)[C@H](O)C(=O)[*:2]; dHis(βS-OH,π-Me) = Cn1cncc1[C@@H](O)[C@@H](N)C(=O)O; Butanoyl(2R-OH,3S-OH) = C[C@H](O)[C@@H](O)C(=O)*; Val(3-OH) = CC(C)(O)[C@H](N)C(=O)O; NMeF = CN[C@@H](Cc1ccccc1)C(=O)O

What was measured:
[1] = Lipophilicity, log D of the compound at pH 7.4; assay type: physicochemical; conditions: buffer
[2] = Metabolic stability in mouse kidney assessed as M1 metabolite formation measured upto 4 hrs by UPLC-MS analysis; assay type: ADME, tissue-based
[3] = biological target: Sodium channel protein type 2 subunit alpha (Homo sapiens, UniProt Q99250); experiment: Inhibition of Nav1.2 (unknown origin)
Chain of Sodium channel protein type 2 subunit alpha (Q99250 whole entry): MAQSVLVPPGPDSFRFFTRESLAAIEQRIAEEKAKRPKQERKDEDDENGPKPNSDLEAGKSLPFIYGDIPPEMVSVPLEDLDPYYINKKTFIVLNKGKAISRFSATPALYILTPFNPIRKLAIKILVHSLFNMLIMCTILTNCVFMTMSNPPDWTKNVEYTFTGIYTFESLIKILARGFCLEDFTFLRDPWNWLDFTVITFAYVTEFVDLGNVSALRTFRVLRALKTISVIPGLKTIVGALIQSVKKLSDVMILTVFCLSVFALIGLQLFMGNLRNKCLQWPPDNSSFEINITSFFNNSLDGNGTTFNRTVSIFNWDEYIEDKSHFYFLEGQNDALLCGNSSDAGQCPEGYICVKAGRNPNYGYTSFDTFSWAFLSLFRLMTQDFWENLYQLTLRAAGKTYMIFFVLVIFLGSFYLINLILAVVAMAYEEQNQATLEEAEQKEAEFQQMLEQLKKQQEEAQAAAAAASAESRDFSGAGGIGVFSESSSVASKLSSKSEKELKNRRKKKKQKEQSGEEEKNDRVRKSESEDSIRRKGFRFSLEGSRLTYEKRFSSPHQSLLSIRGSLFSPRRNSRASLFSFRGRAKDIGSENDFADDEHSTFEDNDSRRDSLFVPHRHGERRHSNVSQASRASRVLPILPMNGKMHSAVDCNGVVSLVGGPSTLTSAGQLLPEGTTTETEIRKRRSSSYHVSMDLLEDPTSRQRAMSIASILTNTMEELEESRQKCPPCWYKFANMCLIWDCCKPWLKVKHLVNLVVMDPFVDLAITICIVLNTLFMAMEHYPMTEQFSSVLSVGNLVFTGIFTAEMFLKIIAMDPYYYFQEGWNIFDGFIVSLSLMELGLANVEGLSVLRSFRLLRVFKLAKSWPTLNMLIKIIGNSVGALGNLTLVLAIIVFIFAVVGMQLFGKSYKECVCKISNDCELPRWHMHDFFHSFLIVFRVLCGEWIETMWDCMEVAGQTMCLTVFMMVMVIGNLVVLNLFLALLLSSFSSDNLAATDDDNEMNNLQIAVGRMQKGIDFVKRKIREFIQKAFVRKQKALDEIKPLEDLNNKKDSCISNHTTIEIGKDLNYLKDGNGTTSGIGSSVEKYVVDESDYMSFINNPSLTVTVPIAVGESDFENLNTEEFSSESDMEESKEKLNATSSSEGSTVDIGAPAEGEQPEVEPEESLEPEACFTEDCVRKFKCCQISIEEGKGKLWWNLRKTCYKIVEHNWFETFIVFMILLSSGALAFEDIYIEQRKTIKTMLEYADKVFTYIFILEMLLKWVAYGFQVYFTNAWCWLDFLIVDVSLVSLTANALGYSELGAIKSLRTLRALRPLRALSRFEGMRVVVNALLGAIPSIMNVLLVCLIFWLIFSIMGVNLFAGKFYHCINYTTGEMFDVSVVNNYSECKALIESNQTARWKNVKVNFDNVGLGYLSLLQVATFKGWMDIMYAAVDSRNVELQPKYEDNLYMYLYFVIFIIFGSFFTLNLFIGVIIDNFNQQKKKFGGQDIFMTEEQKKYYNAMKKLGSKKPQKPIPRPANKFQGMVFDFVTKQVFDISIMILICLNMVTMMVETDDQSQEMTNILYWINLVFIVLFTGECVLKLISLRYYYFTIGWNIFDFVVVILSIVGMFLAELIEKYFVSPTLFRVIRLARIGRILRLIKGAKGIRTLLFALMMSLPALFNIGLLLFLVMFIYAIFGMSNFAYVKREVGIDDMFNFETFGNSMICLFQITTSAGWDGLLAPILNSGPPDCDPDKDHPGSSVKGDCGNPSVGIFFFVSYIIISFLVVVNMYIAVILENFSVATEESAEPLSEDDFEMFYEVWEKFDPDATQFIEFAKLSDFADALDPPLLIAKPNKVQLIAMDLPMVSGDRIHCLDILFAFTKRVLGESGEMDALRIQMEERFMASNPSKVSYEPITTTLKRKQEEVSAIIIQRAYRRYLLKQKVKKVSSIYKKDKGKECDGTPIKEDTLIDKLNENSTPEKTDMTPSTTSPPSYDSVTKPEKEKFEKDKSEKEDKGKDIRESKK

[4] = test system: Escherichia coli; experiment: Antibacterial activity against wild type Escherichia coli ATCC 35218 assessed as reduction in microbial growth incubated for 20 to 22 hrs by CLSI based analysis; assay type: functional; conditions: time 20-22 hrs
[5] = Metabolic stability in mouse kidney assessed as parent compound remaining measured after 1 hrs by UPLC-MS analysis; assay type: ADME, tissue-based; conditions: read-out: Stability
[6] = Metabolic stability in mouse kidney assessed as M2 metabolite formation measured upto 4 hrs by UPLC-MS analysis; assay type: ADME, tissue-based
[7] = Permeability of compound in human Caco-2 cells; assay type: ADME, cell-based; conditions: read-out: permeability
[8] = test system: Klebsiella pneumoniae; experiment: Antibacterial activity against wild type Klebsiella pneumoniae ATCC 13883 assessed as reduction in microbial growth incubated for 20 to 22 hrs by CLSI based analysis; assay type: functional; conditions: time 20-22 hrs
[9] = test system: Acinetobacter baumannii; experiment: Antibacterial activity against wild type Acinetobacter baumannii ATCC 19606 assessed as reduction in microbial growth incubated for 20 to 22 hrs by CLSI based analysis; assay type: functional; conditions: time 20-22 hrs
[10] = test system: Klebsiella pneumoniae; experiment: Antimicrobial activity against Klebsiella pneumoniae assessed as microbial growth inhibition; assay type: functional
[11] = test system: Escherichia coli; experiment: Antibacterial activity against Escherichia coli ATCC 35218 infected in Swiss albino mouse model of Septicaemia infection assessed as log reduction in Septicaemia in blood at 20 mg/kg , iv preincubated for 4 hrs followed by bacterial infection and measured after 4 hrs post infection; assay type: functional; conditions: time 8 hrs
[12] = Metabolic stability in mouse lung assessed as M1 metabolite formation measured upto 4 hrs by UPLC-MS analysis; assay type: ADME, tissue-based
[13] = test system: Escherichia coli; experiment: Antimicrobial activity against Escherichia coli assessed as microbial growth inhibition; assay type: functional
[14] = Metabolic stability in mouse kidney assessed as parent compound remaining measured after 4 hrs by UPLC-MS analysis; assay type: ADME, tissue-based; conditions: read-out: Stability
[15] = test system: Escherichia coli; experiment: Antibacterial activity against Escherichia coli ATCC 35218 harboring SbmA assessed as reduction in microbial growth incubated for 20 to 22 hrs by CLSI based analysis; assay type: functional; conditions: time 20-22 hrs
[16] = test system: HepG2; experiment: Cytotoxicity against human HepG2 cells assessed as inhibition of cell growth at 30 uM incubated for 40 hrs by celltiterglo assay; assay type: functional
[17] = biological target: Sodium channel protein type 5 subunit alpha (Homo sapiens, UniProt Q14524); experiment: Inhibition of Nav1.5 (unknown origin)
Chain of Sodium channel protein type 5 subunit alpha (Q14524 whole entry): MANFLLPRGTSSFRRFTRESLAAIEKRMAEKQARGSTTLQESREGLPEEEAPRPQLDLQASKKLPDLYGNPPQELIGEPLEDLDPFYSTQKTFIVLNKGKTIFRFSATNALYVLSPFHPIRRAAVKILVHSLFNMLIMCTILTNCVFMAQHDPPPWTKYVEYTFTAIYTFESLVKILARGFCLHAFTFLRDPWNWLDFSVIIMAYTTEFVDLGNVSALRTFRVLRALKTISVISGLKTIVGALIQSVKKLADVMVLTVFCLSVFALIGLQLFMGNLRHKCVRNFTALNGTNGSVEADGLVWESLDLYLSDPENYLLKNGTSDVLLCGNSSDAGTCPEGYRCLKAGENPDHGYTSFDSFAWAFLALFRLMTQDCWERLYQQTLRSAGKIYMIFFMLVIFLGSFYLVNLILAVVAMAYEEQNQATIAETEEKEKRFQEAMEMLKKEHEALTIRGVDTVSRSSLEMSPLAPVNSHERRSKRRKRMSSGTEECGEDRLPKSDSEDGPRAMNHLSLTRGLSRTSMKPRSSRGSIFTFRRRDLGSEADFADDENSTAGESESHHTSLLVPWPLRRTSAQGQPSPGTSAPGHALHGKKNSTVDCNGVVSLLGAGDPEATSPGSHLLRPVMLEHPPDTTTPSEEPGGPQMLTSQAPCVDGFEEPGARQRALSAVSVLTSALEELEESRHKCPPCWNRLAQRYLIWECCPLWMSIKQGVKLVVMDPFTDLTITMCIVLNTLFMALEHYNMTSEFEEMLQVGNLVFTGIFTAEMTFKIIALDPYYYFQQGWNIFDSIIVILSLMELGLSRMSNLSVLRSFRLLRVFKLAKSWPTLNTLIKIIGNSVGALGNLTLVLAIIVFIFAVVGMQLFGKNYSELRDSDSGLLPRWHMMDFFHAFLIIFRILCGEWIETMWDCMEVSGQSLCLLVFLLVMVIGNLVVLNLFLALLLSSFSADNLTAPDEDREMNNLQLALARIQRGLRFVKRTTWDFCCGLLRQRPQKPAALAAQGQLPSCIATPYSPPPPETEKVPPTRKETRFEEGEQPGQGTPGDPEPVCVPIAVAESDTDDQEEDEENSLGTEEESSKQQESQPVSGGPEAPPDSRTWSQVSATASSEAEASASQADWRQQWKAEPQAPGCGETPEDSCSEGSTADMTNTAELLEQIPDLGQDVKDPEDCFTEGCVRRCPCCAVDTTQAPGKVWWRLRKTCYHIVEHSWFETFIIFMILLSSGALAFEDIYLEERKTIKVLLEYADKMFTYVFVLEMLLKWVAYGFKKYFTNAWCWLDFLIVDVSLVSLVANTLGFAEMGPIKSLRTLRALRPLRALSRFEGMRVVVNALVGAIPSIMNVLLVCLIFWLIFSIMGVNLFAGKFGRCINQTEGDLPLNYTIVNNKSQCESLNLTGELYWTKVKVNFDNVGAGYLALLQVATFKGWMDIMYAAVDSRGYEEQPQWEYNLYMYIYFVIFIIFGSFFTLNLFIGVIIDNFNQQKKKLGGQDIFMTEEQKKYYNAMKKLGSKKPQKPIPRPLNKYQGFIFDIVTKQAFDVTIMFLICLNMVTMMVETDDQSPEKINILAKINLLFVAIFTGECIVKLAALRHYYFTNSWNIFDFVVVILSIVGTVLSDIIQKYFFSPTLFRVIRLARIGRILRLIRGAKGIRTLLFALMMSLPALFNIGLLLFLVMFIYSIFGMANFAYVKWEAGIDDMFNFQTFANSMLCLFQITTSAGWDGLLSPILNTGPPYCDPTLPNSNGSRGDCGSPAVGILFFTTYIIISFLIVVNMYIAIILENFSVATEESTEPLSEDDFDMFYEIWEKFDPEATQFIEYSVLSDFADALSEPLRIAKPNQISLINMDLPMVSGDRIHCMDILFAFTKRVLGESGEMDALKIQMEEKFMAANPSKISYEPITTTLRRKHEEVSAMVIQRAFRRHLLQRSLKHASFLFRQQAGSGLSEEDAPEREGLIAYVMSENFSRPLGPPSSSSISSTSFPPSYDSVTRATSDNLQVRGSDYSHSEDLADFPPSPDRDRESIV

[18] = test system: Klebsiella pneumoniae; experiment: Antibacterial activity against Klebsiella pneumoniae ATCC 13883 harboring SbmA assessed as reduction in microbial growth incubated for 20 to 22 hrs by CLSI based analysis; assay type: functional; conditions: time 20-22 hrs
[19] = biological target: Voltage-gated inwardly rectifying potassium channel KCNH2 (Homo sapiens, UniProt Q12809); experiment: Inhibition of hERG; assay type: toxicity
Chain of Voltage-gated inwardly rectifying potassium channel KCNH2 (Q12809 whole entry): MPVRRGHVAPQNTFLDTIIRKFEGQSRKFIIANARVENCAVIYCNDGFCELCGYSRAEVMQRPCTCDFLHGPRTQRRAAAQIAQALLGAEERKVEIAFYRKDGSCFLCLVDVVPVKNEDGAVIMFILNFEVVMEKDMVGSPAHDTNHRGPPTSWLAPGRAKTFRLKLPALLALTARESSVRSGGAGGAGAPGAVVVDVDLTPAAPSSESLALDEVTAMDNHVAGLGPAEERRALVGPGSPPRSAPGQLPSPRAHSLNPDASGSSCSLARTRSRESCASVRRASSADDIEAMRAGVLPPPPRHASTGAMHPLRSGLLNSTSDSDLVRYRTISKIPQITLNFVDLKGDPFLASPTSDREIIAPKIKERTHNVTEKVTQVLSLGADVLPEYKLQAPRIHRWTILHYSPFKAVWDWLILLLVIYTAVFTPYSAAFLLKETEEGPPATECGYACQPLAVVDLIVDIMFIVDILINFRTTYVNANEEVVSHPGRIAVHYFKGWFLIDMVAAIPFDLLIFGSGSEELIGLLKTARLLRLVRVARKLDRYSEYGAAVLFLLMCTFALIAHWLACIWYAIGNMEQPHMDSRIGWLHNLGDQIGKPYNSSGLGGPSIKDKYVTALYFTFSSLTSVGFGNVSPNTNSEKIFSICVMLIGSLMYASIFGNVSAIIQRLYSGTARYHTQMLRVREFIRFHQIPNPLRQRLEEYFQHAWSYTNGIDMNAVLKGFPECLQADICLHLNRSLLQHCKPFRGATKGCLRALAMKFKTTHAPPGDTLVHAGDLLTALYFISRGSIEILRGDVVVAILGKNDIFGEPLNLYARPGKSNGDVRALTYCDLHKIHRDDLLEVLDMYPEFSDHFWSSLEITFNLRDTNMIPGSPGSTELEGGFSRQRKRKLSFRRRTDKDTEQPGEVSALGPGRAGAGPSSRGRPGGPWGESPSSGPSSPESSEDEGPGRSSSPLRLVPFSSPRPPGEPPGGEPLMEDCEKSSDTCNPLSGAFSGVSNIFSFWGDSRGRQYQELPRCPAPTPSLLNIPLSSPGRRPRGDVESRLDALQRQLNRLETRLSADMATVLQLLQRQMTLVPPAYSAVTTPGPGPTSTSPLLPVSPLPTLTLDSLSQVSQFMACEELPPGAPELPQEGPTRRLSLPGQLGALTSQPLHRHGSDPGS

[20] = Metabolic stability in mouse lung assessed as parent compound remaining measured after 1 hrs by UPLC-MS analysis; assay type: ADME, tissue-based; conditions: mouse lung, read-out: Stability
[21] = biological target: T1, A-type voltage-gated potassium channel KCND3 (Homo sapiens, UniProt Q9UK17); experiment: Inhibition of Kv4.3 (unknown origin)
T1 sequence (Q9UK17 whole entry): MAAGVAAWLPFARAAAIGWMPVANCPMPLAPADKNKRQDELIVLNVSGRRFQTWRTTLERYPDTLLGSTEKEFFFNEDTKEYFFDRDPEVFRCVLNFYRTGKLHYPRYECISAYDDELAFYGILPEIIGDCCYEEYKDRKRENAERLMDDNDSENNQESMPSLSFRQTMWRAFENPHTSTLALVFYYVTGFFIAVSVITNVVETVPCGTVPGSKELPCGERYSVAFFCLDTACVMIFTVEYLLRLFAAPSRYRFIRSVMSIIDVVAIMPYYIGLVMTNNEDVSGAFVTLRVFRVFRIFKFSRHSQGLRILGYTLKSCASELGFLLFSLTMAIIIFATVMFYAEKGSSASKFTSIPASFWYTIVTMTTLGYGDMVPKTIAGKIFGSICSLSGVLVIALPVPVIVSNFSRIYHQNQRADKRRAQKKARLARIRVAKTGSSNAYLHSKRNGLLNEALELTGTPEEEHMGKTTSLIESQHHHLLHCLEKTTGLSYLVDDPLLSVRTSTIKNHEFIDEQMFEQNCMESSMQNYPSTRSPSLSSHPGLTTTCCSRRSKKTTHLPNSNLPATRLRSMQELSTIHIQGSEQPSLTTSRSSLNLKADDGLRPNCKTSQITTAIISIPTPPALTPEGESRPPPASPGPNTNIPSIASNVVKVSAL

[22] = test system: Escherichia coli; experiment: Antibacterial activity against Escherichia coli ATCC 35218 assessed as reduction in microbial growth incubated for 20 to 22 hrs by CLSI based analysis; assay type: functional; conditions: time 20-22 hrs
[23] = test system: Escherichia coli; experiment: Antibacterial activity against Escherichia coli D22 assessed as reduction in microbial growth incubated for 20 to 22 hrs by CLSI based analysis; assay type: functional; conditions: time 20-22 hrs
[24] = test system: Acinetobacter baumannii; experiment: Antibacterial activity against Acinetobacter baumannii ATCC 19606 assessed as reduction in microbial growth incubated for 20 to 22 hrs by CLSI based analysis; assay type: functional; conditions: time 20-22 hrs
[25] = Aqueous solubility of compound in PBS at pH 7.4; assay type: physicochemical
[26] = test system: Escherichia coli; experiment: Antibacterial activity against Escherichia coli infected in mouse model assessed as mouse survival at 20 mg/kg iv; assay type: functional
[27] = biological target: Voltage-dependent T-type calcium channel subunit alpha-1G (Homo sapiens, UniProt O43497); experiment: Inhibition of Cav3.1 (unknown origin)
[28] = test system: Escherichia coli; experiment: Antibacterial activity against Escherichia coli D21 assessed as reduction in microbial growth incubated for 20 to 22 hrs by CLSI based analysis; assay type: functional; conditions: time 20-22 hrs
[29] = test system: Pseudomonas aeruginosa; experiment: Antimicrobial activity against Pseudomonas aeruginosa assessed as microbial growth inhibition; assay type: functional
[30] = Metabolic stability in mouse lung assessed as parent compound remaining measured after 4 hrs by UPLC-MS analysis; assay type: ADME, tissue-based; conditions: mouse lung, read-out: Stability
[31] = test system: Klebsiella pneumoniae; experiment: Antibacterial activity against Klebsiella pneumoniae ATCC 13883 assessed as reduction in microbial growth incubated for 20 to 22 hrs by CLSI based analysis; assay type: functional; conditions: time 20-22 hrs
[32] = test system: Escherichia coli; experiment: Antibacterial activity against Escherichia coli ATCC 35218 infected in Swiss albino mouse model of Septicaemia infection assessed as log reduction in Septicaemia in blood at 10 mg/kg , iv preincubated for 4 hrs followed by bacterial infection and measured after 4 hrs post infection; assay type: functional; conditions: time 8 hrs

SMILES: CO[C@@H](CNC(=O)[C@H](NC(=O)[C@H](O)[C@H](C)O)[C@H](O)c1cncn1C)[C@H](O)[C@H](O)C(=O)N(C)[C@@H](Cc1ccccc1)C(=O)NCC(=O)N[C@H](C(=O)N[C@@H](CO)C(=O)N[C@H](C(=O)N[C@@H](CC(C)C)C(=O)N[C@@H](CO)C(=O)O)C(C)(C)O)C(C)(C)O ({Butanoyl(2R-OH,3S-OH)}-[dHis(βS-OH,π-Me)][Ava(2S,3R-(OH)2,4S-OMe)][NMeF]G[Val(3-OH)]S[Val(3-OH)]LS-OH)
- logD [1]: 0.68
- Drug metabolism [2]: Metabolite_Detected
- IC50 [3]: > 30 µM
- MIC [4]: 4 µg/mL
- remaining at 1 h [5]: 41%
- Drug metabolism [6]: Metabolite_Detected
- Papp [7]: < 10 ×10⁻⁶ cm/s
- MIC [8]: 16 µg/mL
- MIC [9]: > 32 µg/mL
- MIC [10]: ≥ 64 µg/mL
- Activity [11]: -3.3 log10CFU
- Drug metabolism [12]: Metabolite_Detected
- MIC [13]: 1 µg/mL (≈ 0.844 µM)
- remaining at 4 h [14]: 6%
- MIC [15]: 4 µg/mL
- inhibition at 30 µM [16]: 0%
- IC50 [17]: > 30 µM
- MIC [18]: 16 µg/mL
- IC50 [19]: > 30 µM
- remaining at 1 h [20]: 7%
- IC50 [21]: > 30 µM
- MIC [22]: 4 µg/mL
- MIC [23]: 0.25 µg/mL
- MIC [24]: > 32 µg/mL
- solubility [25]: 2800 µg/mL (≈ 2360 µM)
- Activity [26]: <=60%
- IC50 [27]: > 30 µM
- MIC [28]: 4 µg/mL
- MIC [29]: > 64 µg/mL
- remaining at 4 h [30]: 1%
- MIC [31]: 16 µg/mL

SMILES: CO[C@@H](CNC(=O)[C@H](NC(=O)[C@H](O)[C@H](C)O)[C@H](O)c1cncn1C)[C@H](O)[C@H](O)C(=O)N(C)[C@@H](Cc1ccccc1)C(=O)NCC(=O)N[C@H](C(=O)N[C@@H](CO)C(=O)N[C@H](C(=O)N[C@H](C(=O)N[C@@H](CO)C(=O)O)C(C)(C)C)C(C)(C)O)C(C)(C)O
- remaining at 1 h [5]: 104%
- remaining at 4 h [14]: 72%
- remaining at 1 h [20]: 105%
- MIC [22]: 2 µg/mL
- MIC [24]: > 32 µg/mL
- Activity [32]: -5.9 log10CFU
- remaining at 4 h [30]: 104%
- MIC [31]: 2 µg/mL
